{"source": "patent US6540995B1", "about": "“Encapsulated cells producing cytochrome P450” (priority 1996, dated 2003)", "key": {"[1]": {"settings": "after administration of the drug to patients (Wright et al. 1995); cited from earlier work"}, "[2]": {"system": "breast cancer cells transfected with the CYP2B1 gene", "settings": "another study; cited from earlier work"}, "[3]": {"system": "breast cancer cells transfected with the CYP2B1 gene", "settings": "another study; cited from earlier work", "remark": "listed apart in the source"}}, "data": [{"smiles": "O=P1(NCCCl)OCCCN1CCCl", "note": "(stereo not shown) [ifosfamide]", "values": [{"measurement": "plasma drug concentrations", "setting": "[1]", "result": "100 to 500", "unit": "µM"}]}, {"smiles": "O=P1(N(CCCl)CCCl)NCCCO1", "note": "(stereo not shown) [cyclophosphamide]", "values": [{"measurement": "sensitivity of CYP2B1 expressing cells compared with cells not expressing CYP2B1", "setting": "CYP2B1 expressing cells", "result": "tenfold higher sensitivity"}, {"measurement": "effect on CYP2B1 transfected breast cancer cells", "setting": "[2]", "result": "cell killing"}, {"measurement": "effect on tumours after implantation in nude mice", "setting": "[3]", "result": "tumour regression"}]}]}
